Experimental data from PubChem BioAssay (NCI).
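Protocol summary: plate cells (96-well), add compound at 5 concentrations, incubate 48 h, interpolate endpoints linearly. The concentration for full growth arrest is given as TGI.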

How the values were obtained:
Assay in all cases: DTP human tumour cell line panel, 48 h
786-0 renal = test system: 786-0 renal
A498 renal = test system: A498 renal
A549 NSCLC = test system: A549 NSCLC
ACHN renal = test system: ACHN renal
CAKI-1 renal = test system: CAKI-1 renal
CCRF-CEM leukemia = test system: CCRF-CEM leukemia
COLO 205 colon = test system: COLO 205 colon
DLD-1 colon = test system: DLD-1 colon
DMS 114 small cell lung = test system: DMS 114 small cell lung
DMS 273 small cell lung = test system: DMS 273 small cell lung
EKVX NSCLC = test system: EKVX NSCLC
HCC-2998 colon = test system: HCC-2998 colon
HCT-116 colon = test system: HCT-116 colon
HCT-15 colon = test system: HCT-15 colon
HL-60(TB) leukemia = test system: HL-60(TB) leukemia
HOP-18 NSCLC = test system: HOP-18 NSCLC
HOP-62 NSCLC = test system: HOP-62 NSCLC
HOP-92 NSCLC = test system: HOP-92 NSCLC
HT29 colon = test system: HT29 colon
IGROV1 ovarian = test system: IGROV1 ovarian
K-562 leukemia = test system: K-562 leukemia
KM12 colon = test system: KM12 colon
KM20L2 colon = test system: KM20L2 colon
LOX IMVI melanoma = test system: LOX IMVI melanoma
LXFL 529 NSCLC = test system: LXFL 529 NSCLC
M14 melanoma = test system: M14 melanoma
M19-MEL melanoma = test system: M19-MEL melanoma
MOLT-4 leukemia = test system: MOLT-4 leukemia
NCI-H226 lung = test system: NCI-H226 lung
NCI-H23 lung = test system: NCI-H23 lung
NCI-H460 lung = test system: NCI-H460 lung
NCI-H522 lung = test system: NCI-H522 lung
OVCAR-3 ovarian = test system: OVCAR-3 ovarian
OVCAR-4 ovarian = test system: OVCAR-4 ovarian
OVCAR-5 ovarian = test system: OVCAR-5 ovarian
OVCAR-8 ovarian = test system: OVCAR-8 ovarian
RPMI-8226 leukemia = test system: RPMI-8226 leukemia
RXF 393 renal = test system: RXF 393 renal
RXF-631 renal = test system: RXF-631 renal
SF-268 CNS = test system: SF-268 CNS
SF-295 CNS = test system: SF-295 CNS
SF-539 CNS = test system: SF-539 CNS
SK-MEL-2 melanoma = test system: SK-MEL-2 melanoma
SK-MEL-28 melanoma = test system: SK-MEL-28 melanoma
SK-MEL-5 melanoma = test system: SK-MEL-5 melanoma
SK-OV-3 ovarian = test system: SK-OV-3 ovarian
SN12C renal = test system: SN12C renal
SNB-19 CNS = test system: SNB-19 CNS
SNB-75 CNS = test system: SNB-75 CNS
SNB-78 CNS = test system: SNB-78 CNS
SR leukemia = test system: SR leukemia
SW-620 colon = test system: SW-620 colon
TK-10 renal = test system: TK-10 renal
U251 CNS = test system: U251 CNS
UACC-257 melanoma = test system: UACC-257 melanoma
UACC-62 melanoma = test system: UACC-62 melanoma
UO-31 renal = test system: UO-31 renal
MALME-3M melanoma = test system: MALME-3M melanoma

## Nc1nc(CC2(O)CCCCC2)cc(-c2ccccc2)n1
786-0 renal
  TGI: 43.2 µM
A498 renal
  TGI: > 73.3 µM
A549 NSCLC
  TGI: > 72.4 µM
ACHN renal
  TGI: > 100 µM
CAKI-1 renal
  TGI: > 100 µM
CCRF-CEM leukemia
  TGI: > 95.9 µM
COLO 205 colon
  TGI: 32.9 µM
DLD-1 colon
  TGI: > 100 µM
DMS 114 small cell lung
  TGI: > 70.6 µM
DMS 273 small cell lung
  TGI: > 66 µM
EKVX NSCLC
  TGI: > 100 µM
HCC-2998 colon
  TGI: > 81 µM
HCT-116 colon
  TGI: > 51 µM
HCT-15 colon
  TGI: > 75.5 µM
HL-60(TB) leukemia
  TGI: 47.9 µM
HOP-18 NSCLC
  TGI: > 90 µM
HOP-62 NSCLC
  TGI: > 80.6 µM
HOP-92 NSCLC
  TGI: > 71.9 µM
HT29 colon
  TGI: > 49.2 µM
IGROV1 ovarian
  TGI: > 100 µM
K-562 leukemia
  TGI: > 100 µM
KM12 colon
  TGI: > 57 µM
KM20L2 colon
  TGI: > 53.7 µM
LOX IMVI melanoma
  TGI: > 55.5 µM
LXFL 529 NSCLC
  TGI: > 100 µM
M14 melanoma
  TGI: > 31.6 µM
M19-MEL melanoma
  TGI: > 72.8 µM
MOLT-4 leukemia
  TGI: 53.9 µM
NCI-H226 lung
  TGI: > 61.9 µM
NCI-H23 lung
  TGI: > 66.4 µM
NCI-H460 lung
  TGI: > 66 µM
NCI-H522 lung
  TGI: > 100 µM
OVCAR-3 ovarian
  TGI: > 63.6 µM
OVCAR-4 ovarian
  TGI: > 76.8 µM
OVCAR-5 ovarian
  TGI: 54.4 µM
OVCAR-8 ovarian
  TGI: > 84.7 µM
RPMI-8226 leukemia
  TGI: 78.6 µM
RXF 393 renal
  TGI: > 57.5 µM
RXF-631 renal
  TGI: > 100 µM
SF-268 CNS
  TGI: > 100 µM
SF-295 CNS
  TGI: > 77.3 µM
SF-539 CNS
  TGI: > 100 µM
SK-MEL-2 melanoma
  TGI: > 64.8 µM
SK-MEL-28 melanoma
  TGI: > 100 µM
SK-MEL-5 melanoma
  TGI: > 57.4 µM
SK-OV-3 ovarian
  TGI: > 100 µM
SN12C renal
  TGI: 37.4 µM
SNB-19 CNS
  TGI: > 100 µM
SNB-75 CNS
  TGI: 98.1 µM
SNB-78 CNS
  TGI: > 100 µM
SR leukemia
  TGI: 49.6 µM
SW-620 colon
  TGI: 65 µM
TK-10 renal
  TGI: > 100 µM
U251 CNS
  TGI: > 100 µM
UACC-257 melanoma
  TGI: > 78.1 µM
UACC-62 melanoma
  TGI: > 100 µM
UO-31 renal
  TGI: > 91.6 µM

## CC1(C)Oc2ccccc2[N+]([O-])=C1c1ccccc1
786-0 renal
  TGI: > 100 µM
A498 renal
  TGI: > 100 µM
A549 NSCLC
  TGI: > 100 µM
ACHN renal
  TGI: > 100 µM
CAKI-1 renal
  TGI: > 100 µM
CCRF-CEM leukemia
  TGI: > 100 µM
COLO 205 colon
  TGI: > 100 µM
DLD-1 colon
  TGI: > 100 µM
DMS 114 small cell lung
  TGI: > 100 µM
DMS 273 small cell lung
  TGI: > 100 µM
HCC-2998 colon
  TGI: > 100 µM
HCT-116 colon
  TGI: > 100 µM
HCT-15 colon
  TGI: > 100 µM
HL-60(TB) leukemia
  TGI: > 100 µM
HOP-62 NSCLC
  TGI: > 100 µM
HOP-92 NSCLC
  TGI: > 100 µM
HT29 colon
  TGI: > 100 µM
IGROV1 ovarian
  TGI: > 100 µM
K-562 leukemia
  TGI: > 100 µM
KM20L2 colon
  TGI: > 100 µM
LXFL 529 NSCLC
  TGI: > 100 µM
M14 melanoma
  TGI: > 100 µM
M19-MEL melanoma
  TGI: > 100 µM
MALME-3M melanoma
  TGI: > 100 µM
MOLT-4 leukemia
  TGI: > 100 µM
NCI-H23 lung
  TGI: > 100 µM
NCI-H460 lung
  TGI: > 100 µM
NCI-H522 lung
  TGI: > 100 µM
OVCAR-3 ovarian
  TGI: > 100 µM
OVCAR-4 ovarian
  TGI: > 100 µM
OVCAR-8 ovarian
  TGI: > 100 µM
RPMI-8226 leukemia
  TGI: > 100 µM
RXF 393 renal
  TGI: > 100 µM
RXF-631 renal
  TGI: > 100 µM
SF-268 CNS
  TGI: > 100 µM
SF-295 CNS
  TGI: > 100 µM
SF-539 CNS
  TGI: > 100 µM
SK-MEL-28 melanoma
  TGI: > 100 µM
SK-MEL-5 melanoma
  TGI: > 100 µM
SK-OV-3 ovarian
  TGI: > 100 µM
SN12C renal
  TGI: > 100 µM
SNB-19 CNS
  TGI: > 100 µM
SNB-75 CNS
  TGI: > 100 µM
SNB-78 CNS
  TGI: > 100 µM
SR leukemia
  TGI: > 100 µM
SW-620 colon
  TGI: > 100 µM
U251 CNS
  TGI: > 100 µM
UACC-257 melanoma
  TGI: > 100 µM
UACC-62 melanoma
  TGI: > 100 µM
UO-31 renal
  TGI: > 100 µM
